# Source: PubChem BioAssay AID330 (DTP/NCI, 2004)
# “And” between values parts separate entries of the source, which are not always exact repeats. Equal entries are not always repeated. Inconclusive results and toxic doses are left out. Peptide text beside a SMILES is read from it.
# Tested on: P388 leukemia ip, CD2F1 mice, survival T/C
# Assay: NCI In Vivo Anticancer Drug Screen. Data for tumor model P388 Leukemia (intraperitoneal) in CD2F1 (CDF1) mice
# Details: endpoint: median survival time, higher = longer survival
# In short: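 Mice carrying the transplanted tumor received test compound or vehicle. Survival was recorded in each group, and the value is the treated-group measurement divided by that of the vehicle-treated control group.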
# [1] = dose: 100.0 mg/kg/injection, schedule: Q04DX002 (ip), vehicle: saline with Tween-80
# [2] = dose: 60.0 mg/kg/injection, schedule: Q01DX005 (ip), vehicle: saline
# [3] = dose: 120.0 mg/kg/injection, schedule: Q01DX005 (ip), vehicle: saline
# [4] = dose: 240.0 mg/kg/injection, schedule: Q01DX005 (ip), vehicle: saline
# [5] = dose: 50.0 mg/kg/injection, schedule: Q01DX005 (ip), vehicle: saline with Tween-80
# [6] = dose: 100.0 mg/kg/injection, schedule: Q01DX005 (ip), vehicle: saline with Tween-80
# [7] = dose: 6.25 mg/kg/injection, schedule: Q01DX009 (ip), vehicle: saline
# [8] = dose: 100.0 mg/kg/injection, schedule: Q04DX003 (ip), vehicle: saline with Tween-80
# [9] = dose: 200.0 mg/kg/injection, schedule: Q04DX003 (ip), vehicle: saline with Tween-80
# [10] = dose: 400.0 mg/kg/injection, schedule: Q04DX003 (ip), vehicle: saline with Tween-80
# [11] = dose: 25.0 mg/kg/injection, schedule: Q01DX009 (ip), vehicle: saline with Tween-80
smiles,measurement,setting,value
C=C1C[C@]2(C)c3ccccc3NC(=O)[C@H]12,T/C,"dose: 50.0 mg/kg/injection, schedule: Q01DX005 (ip), vehicle: Klucel (hydroxypropylcellulose) (HPC)",105 % of control
same,T/C,"dose: 100.0 mg/kg/injection, schedule: Q01DX005 (ip), vehicle: Klucel (hydroxypropylcellulose) (HPC)",107 % of control
same,T/C,"dose: 200.0 mg/kg/injection, schedule: Q01DX005 (ip), vehicle: Klucel (hydroxypropylcellulose) (HPC)",98 % of control
S=c1[nH]c(N2CCOCC2)ncc1-c1ccccc1,T/C,[1],99 % of control
same,T/C,"dose: 200.0 mg/kg/injection, schedule: Q04DX002 (ip), vehicle: saline with Tween-80",99 % of control
CC(C)(O)C1CCC2(C)CC(=O)NCCN12 (configuration not stated),T/C,"dose: 25.0 mg/kg/injection, schedule: Q01DX001 (ip), vehicle: Klucel (hydroxypropylcellulose) (HPC)",112 % of control
same,T/C,"dose: 50.0 mg/kg/injection, schedule: Q01DX001 (ip), vehicle: Klucel (hydroxypropylcellulose) (HPC)",106 % of control
CCC(C)C(N)C(=O)NC(C(=O)O)C(C)C (stereo not drawn) (H-Ile-Val-OH; configuration not given here),T/C,[2],95 % of control
same,T/C,[3],103 % of control
same,T/C,[4],95 % of control
CSc1nc(N)n2ncc(Br)c2n1,T/C,[1],92 % of control
COc1ccc(C2=C(Cl)C(=O)N(c3ccccc3C)C(=O)C2(Cl)Cl)cc1,T/C,"dose: 100.0 mg/kg/injection, schedule: Q04DX002 (ip), vehicle: Klucel (hydroxypropylcellulose) (HPC)",101 % of control
same,T/C,"dose: 200.0 mg/kg/injection, schedule: Q04DX002 (ip), vehicle: Klucel (hydroxypropylcellulose) (HPC)",112 % of control
same,T/C,"dose: 400.0 mg/kg/injection, schedule: Q04DX002 (ip), vehicle: Klucel (hydroxypropylcellulose) (HPC)",117 % of control
C=C(C)C(=O)OC1C/C(CO)=C\C(O)C/C(C)=C/C2OC(=O)C(=C)C21 (configuration not stated),T/C,"dose: 1.25 mg/kg/injection, schedule: Q01DX009 (ip), vehicle: saline + alcohol",121 % of control
same,T/C,"dose: 2.5 mg/kg/injection, schedule: Q01DX009 (ip), vehicle: saline + alcohol",104 % of control
same,T/C,"dose: 10.0 mg/kg/injection, schedule: Q01DX009 (ip), vehicle: saline + alcohol",159 % of control
same,T/C,"dose: 20.0 mg/kg/injection, schedule: Q01DX009 (ip), vehicle: saline + alcohol",167 % of control
CC(C)C(=O)[O][Bi]([c]1ccccc1)[c]1ccccc1,T/C,"dose: 6.25 mg/kg/injection, schedule: Q01DX005 (ip), vehicle: Klucel (hydroxypropylcellulose) (HPC)",108 % of control and 110 % of control
same,T/C,"dose: 12.5 mg/kg/injection, schedule: Q01DX005 (ip), vehicle: Klucel (hydroxypropylcellulose) (HPC)",101 % of control and 113 % of control
same,T/C,"dose: 25.0 mg/kg/injection, schedule: Q01DX005 (ip), vehicle: Klucel (hydroxypropylcellulose) (HPC)",105 % of control and 113 % of control
CN(C)CCC(=O)C(=Cc1cccs1)C(=O)CCN(C)C,T/C,[2],101 % of control
same,T/C,[3],98 % of control
same,T/C,[4],106 % of control
CC1(C)N=C(N)N=C(N)N1c1ccc(CNC(=O)Nc2ccc(S(=O)(=O)F)cc2)cc1,T/C,"dose: 100.0 mg/kg/injection, schedule: Q04DX003 (ip), vehicle: saline",172 % of control
same,T/C,"dose: 200.0 mg/kg/injection, schedule: Q04DX003 (ip), vehicle: saline",181 % of control
same,T/C,"dose: 400.0 mg/kg/injection, schedule: Q04DX003 (ip), vehicle: saline",90 % of control
O=P(O)(O)OCC1(O)OCC(O)C(O)C1O (configuration not stated),T/C,"dose: 12.5 mg/kg/injection, schedule: Q01DX005 (ip), vehicle: saline",106 % of control
same,T/C,"dose: 25.0 mg/kg/injection, schedule: Q01DX005 (ip), vehicle: saline",104 % of control
same,T/C,"dose: 50.0 mg/kg/injection, schedule: Q01DX005 (ip), vehicle: saline",99 % of control and 103 % of control
CC(=O)C(c1ccccc1)S(=O)(=O)c1ccc(C)cc1 (configuration not stated),T/C,"dose: 25.0 mg/kg/injection, schedule: Q01DX005 (ip), vehicle: saline with Tween-80",97 % of control
same,T/C,[5],94 % of control
same,T/C,[6],87 % of control
COc1ccc(C(=O)Nc2ccccc2CCC2CCCCN2C)cc1 (configuration not stated),T/C,[7],95 % of control
same,T/C,"dose: 12.5 mg/kg/injection, schedule: Q01DX009 (ip), vehicle: saline",95 % of control
same,T/C,"dose: 25.0 mg/kg/injection, schedule: Q01DX009 (ip), vehicle: saline",92 % of control
same,T/C,"dose: 25.0 mg/kg/injection, schedule: Q01DX009 (ip), vehicle: suspension in saline",100 % of control
O=S1(=O)C=C(Br)CO1,T/C,[8],106 % of control
same,T/C,[9],106 % of control
same,T/C,[10],97 % of control
COC1=C(OC)C(=O)C=CC1=O,T/C,"dose: 0.78 mg/kg/injection, schedule: Q01DX009 (ip), vehicle: saline",101 % of control
same,T/C,"dose: 1.56 mg/kg/injection, schedule: Q01DX009 (ip), vehicle: saline",94 % of control
same,T/C,"dose: 3.13 mg/kg/injection, schedule: Q01DX009 (ip), vehicle: saline",96 % of control
same,T/C,[7],102 % of control
Clc1ccc(-c2cc(-c3cc(-c4ccc(Cl)c(Cl)c4)n[nH]3)[nH]n2)cc1Cl,T/C,"dose: 60.0 mg/kg/injection, schedule: Q01DX005 (ip), vehicle: Klucel (hydroxypropylcellulose) (HPC)",97 % of control
same,T/C,"dose: 120.0 mg/kg/injection, schedule: Q01DX005 (ip), vehicle: Klucel (hydroxypropylcellulose) (HPC)",86 % of control
same,T/C,"dose: 240.0 mg/kg/injection, schedule: Q01DX005 (ip), vehicle: Klucel (hydroxypropylcellulose) (HPC)",96 % of control
Cc1cn(CCCn2cnc3cncnc32)c(=O)[nH]c1=O,T/C,"dose: 50.0 mg/kg/injection, schedule: Q01DX005 (ip), vehicle: suspension in saline",98 % of control
same,T/C,"dose: 100.0 mg/kg/injection, schedule: Q01DX005 (ip), vehicle: suspension in saline",105 % of control
same,T/C,"dose: 200.0 mg/kg/injection, schedule: Q01DX005 (ip), vehicle: suspension in saline",96 % of control
COc1ccccc1N(CCCO)C(=S)Nc1ccccc1,T/C,"dose: 25.0 mg/kg/injection, schedule: Q01DX009 (ip), vehicle: other",105 % of control
same,T/C,"dose: 50.0 mg/kg/injection, schedule: Q01DX009 (ip), vehicle: other",110 % of control
same,T/C,"dose: 100.0 mg/kg/injection, schedule: Q01DX009 (ip), vehicle: other",122 % of control
same,T/C,"dose: 200.0 mg/kg/injection, schedule: Q01DX009 (ip), vehicle: other",111 % of control
same,T/C,"dose: 400.0 mg/kg/injection, schedule: Q01DX009 (ip), vehicle: other",111 % of control
O=C(/C=C/c1ccc(Cl)cc1)NC1C=Nc2ccc([N+](=O)[O-])cc2NC1=O (configuration not stated),T/C,"dose: 60.0 mg/kg/injection, schedule: Q01DX005 (ip), vehicle: saline with Tween-80",105 % of control
same,T/C,"dose: 120.0 mg/kg/injection, schedule: Q01DX005 (ip), vehicle: saline with Tween-80",100 % of control
same,T/C,"dose: 240.0 mg/kg/injection, schedule: Q01DX005 (ip), vehicle: saline with Tween-80",98 % of control
COc1cc(/C=C(\C)[N+](=O)[O-])cc(Br)c1O,T/C,[8],100 % of control
same,T/C,[9],109 % of control
same,T/C,[10],94 % of control
CCN(CC)CCCC(C)Nc1ccnc2cc(N(C)C)ccc12 (configuration not stated),T/C,"dose: 6.25 mg/kg/injection, schedule: Q01DX009 (ip), vehicle: saline with Tween-80",93 % of control
same,T/C,"dose: 12.5 mg/kg/injection, schedule: Q01DX009 (ip), vehicle: saline with Tween-80",109 % of control
same,T/C,[11],111 % of control
Cc1ccc2c(c1)C(=S)NC(=O)C2,T/C,"dose: 12.5 mg/kg/injection, schedule: Q01DX009 (ip), vehicle: distilled water + Tween-80",87 % of control
same,T/C,"dose: 50.0 mg/kg/injection, schedule: Q01DX009 (ip), vehicle: distilled water + Tween-80",93 % of control
same,T/C,"dose: 100.0 mg/kg/injection, schedule: Q01DX009 (ip), vehicle: distilled water + Tween-80",91 % of control
same,T/C,"dose: 200.0 mg/kg/injection, schedule: Q01DX009 (ip), vehicle: distilled water + Tween-80",95 % of control
CC12CCC(C(Br)C1=O)C2(C)CBr (configuration not stated),T/C,[5],103 % of control
same,T/C,[6],104 % of control
same,T/C,"dose: 200.0 mg/kg/injection, schedule: Q01DX005 (ip), vehicle: saline with Tween-80",92 % of control
CCC1C(=O)NC(=O)C1(C)c1ccccc1 (configuration not stated),T/C,[11],100 % of control and 102 % of control
same,T/C,"dose: 50.0 mg/kg/injection, schedule: Q01DX009 (ip), vehicle: saline with Tween-80",100 % of control and 105 % of control
same,T/C,"dose: 100.0 mg/kg/injection, schedule: Q01DX009 (ip), vehicle: saline with Tween-80",102 % of control and 103 % of control
same,T/C,"dose: 200.0 mg/kg/injection, schedule: Q01DX009 (ip), vehicle: saline with Tween-80",102 % of control and 111 % of control
CC1=CC(=O)C(/C=C(\C)[N+](=O)[O-])=CC1=O,T/C,"dose: 12.5 mg/kg/injection, schedule: Q01DX009 (ip), vehicle: Klucel (hydroxypropylcellulose) (HPC)",97 % of control
same,T/C,"dose: 25.0 mg/kg/injection, schedule: Q01DX009 (ip), vehicle: Klucel (hydroxypropylcellulose) (HPC)",99 % of control
